Test results published in PubChem BioAssay (NCI).
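GI50: concentration for 50% inhibition of growth. TGI: concentration producing complete growth inhibition.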

Experiments:
Experiment in all cases: NCI anticancer screen, dose series, 384-well format
SW-620 colon = tested on: SW-620 colon
DU-145 prostate = tested on: DU-145 prostate
NCI-H522 lung = tested on: NCI-H522 lung
MALME-3M melanoma = tested on: MALME-3M melanoma
SNB-19 CNS = tested on: SNB-19 CNS
UO-31 renal = tested on: UO-31 renal
NCI-H226 lung = tested on: NCI-H226 lung
OVCAR-8 ovarian = tested on: OVCAR-8 ovarian
RXF 393 renal = tested on: RXF 393 renal
LOX IMVI melanoma = tested on: LOX IMVI melanoma
TK-10 renal = tested on: TK-10 renal
SNB-75 CNS = tested on: SNB-75 CNS
SN12C renal = tested on: SN12C renal
NCI-H460 NSCLC = tested on: NCI-H460 NSCLC
ACHN renal = tested on: ACHN renal
RPMI-8226 leukemia = tested on: RPMI-8226 leukemia
BT-549 breast = tested on: BT-549 breast
HT29 colon = tested on: HT29 colon
SF-539 CNS = tested on: SF-539 CNS
A549 NSCLC = tested on: A549 NSCLC
OVCAR-5 ovarian = tested on: OVCAR-5 ovarian
HOP-92 NSCLC = tested on: HOP-92 NSCLC
HCC-2998 colon = tested on: HCC-2998 colon
SK-MEL-5 melanoma = tested on: SK-MEL-5 melanoma
COLO 205 colon = tested on: COLO 205 colon
HS 578T breast = tested on: HS 578T breast
U251 glioblastoma = tested on: U251 glioblastoma
MDA-MB-231 breast = tested on: MDA-MB-231 breast
SK-OV-3 ovarian = tested on: SK-OV-3 ovarian
MDA-MB-435 melanoma = tested on: MDA-MB-435 melanoma
786-0 renal = tested on: 786-0 renal
CCRF-CEM leukemia = tested on: CCRF-CEM leukemia
MDA-MB-468 breast = tested on: MDA-MB-468 breast
IGROV1 ovarian = tested on: IGROV1 ovarian
UACC-62 melanoma = tested on: UACC-62 melanoma
NCI/ADR-RES ovarian = tested on: NCI/ADR-RES ovarian
MCF7 breast = tested on: MCF7 breast
HCT-15 colon = tested on: HCT-15 colon
T-47D breast = tested on: T-47D breast
NCI-H23 lung = tested on: NCI-H23 lung
KM12 colon = tested on: KM12 colon
PC-3 prostate = tested on: PC-3 prostate
EKVX NSCLC = tested on: EKVX NSCLC
SR leukemia = tested on: SR leukemia
HL-60(TB) leukemia = tested on: HL-60(TB) leukemia
NCI-H322M lung = tested on: NCI-H322M lung
UACC-257 melanoma = tested on: UACC-257 melanoma
OVCAR-4 ovarian = tested on: OVCAR-4 ovarian
A498 renal = tested on: A498 renal
SF-268 CNS = tested on: SF-268 CNS
SF-295 CNS = tested on: SF-295 CNS
OVCAR-3 ovarian = tested on: OVCAR-3 ovarian
MOLT-4 leukemia = tested on: MOLT-4 leukemia
M14 melanoma = tested on: M14 melanoma
HOP-62 NSCLC = tested on: HOP-62 NSCLC
SK-MEL-28 melanoma = tested on: SK-MEL-28 melanoma
K-562 leukemia = tested on: K-562 leukemia
CAKI-1 renal = tested on: CAKI-1 renal

In the case of `Cn1cc(-c2cnc3ccc4ccc(CS(=O)(=O)NCc5ccccn5)cc4c(=O)c3c2)cn1`, the GI50 (SW-620 colon) is reported as 14 µM, the TGI (SW-620 colon) is reported as 28.8 µM and the GI50 (DU-145 prostate) is reported as 20 µM. It also gave a TGI (DU-145 prostate) of 51.2 µM, a GI50 (NCI-H522 lung) of 13.1 µM and a TGI (NCI-H522 lung) of 25.9 µM. The GI50 (MALME-3M melanoma) was 12.3 µM, the TGI (MALME-3M melanoma) was 25.4 µM and the GI50 (SNB-19 CNS) was 20.8 µM. For the same compound, the TGI (SNB-19 CNS) was 53.1 µM, the GI50 (UO-31 renal) was 35.9 µM and the TGI (UO-31 renal) was greater than 100 µM. For the same compound, the GI50 (NCI-H226 lung) was 13.7 µM, the TGI (NCI-H226 lung) was 30.5 µM and the GI50 (OVCAR-8 ovarian) was 16.2 µM. The TGI (OVCAR-8 ovarian) was 36.5 µM, the GI50 (RXF 393 renal) was 13.5 µM and the TGI (RXF 393 renal) was 26.8 µM. For the same compound, the GI50 (LOX IMVI melanoma) was 16.3 µM, the TGI (LOX IMVI melanoma) was 30.2 µM and the GI50 (TK-10 renal) was 20.8 µM. It also gave a TGI (TK-10 renal) of 51.5 µM, a GI50 (SNB-75 CNS) of 15.9 µM and a TGI (SNB-75 CNS) of 30.2 µM. It also gave a GI50 (SN12C renal) of 19.9 µM, a TGI (SN12C renal) of 46.4 µM and a GI50 (NCI-H460 NSCLC) of 15.1 µM. For the same compound, the TGI (NCI-H460 NSCLC) was 28.9 µM, the GI50 (ACHN renal) was 24.7 µM and the TGI (ACHN renal) was 98.4 µM. It also gave a GI50 (RPMI-8226 leukemia) of 5.18 µM, a TGI (RPMI-8226 leukemia) of 17.5 µM and a GI50 (BT-549 breast) of 14.9 µM. The TGI (BT-549 breast) was 30.8 µM, the GI50 (HT29 colon) was 15.4 µM and the TGI (HT29 colon) was 32.7 µM. The GI50 (SF-539 CNS) was 15.3 µM, the TGI (SF-539 CNS) was 28.9 µM and the GI50 (A549 NSCLC) was 40.4 µM. It also gave a TGI (A549 NSCLC) greater than 100 µM, a GI50 (OVCAR-5 ovarian) of 25.4 µM and a TGI (OVCAR-5 ovarian) of 49.3 µM. For the same compound, the GI50 (HOP-92 NSCLC) was 14.7 µM, the TGI (HOP-92 NSCLC) was 34.1 µM and the GI50 (HCC-2998 colon) was 15 µM. The TGI (HCC-2998 colon) was 28.7 µM, the GI50 (SK-MEL-5 melanoma) was 8.26 µM and the TGI (SK-MEL-5 melanoma) was 20.8 µM. It also gave a GI50 (COLO 205 colon) of 34.1 µM, a TGI (COLO 205 colon) greater than 100 µM and a GI50 (HS 578T breast) of 14.4 µM. The TGI (HS 578T breast) was 33.3 µM, the GI50 (U251 glioblastoma) was 21.2 µM and the TGI (U251 glioblastoma) was 65.3 µM. The GI50 (MDA-MB-231 breast) was 15.2 µM, the TGI (MDA-MB-231 breast) was 30.4 µM and the GI50 (SK-OV-3 ovarian) was 13.4 µM. For the same compound, the TGI (SK-OV-3 ovarian) was 31.3 µM, the GI50 (MDA-MB-435 melanoma) was 3.77 µM and the TGI (MDA-MB-435 melanoma) was 12.2 µM. For the same compound, the GI50 ([…]-0 renal) was 37.6 µM, the TGI (786-0 renal) was greater than 100 µM and the GI50 (CCRF-CEM leukemia) was 7.51 µM. For the same compound, the TGI (CCRF-CEM leukemia) was 19.8 µM, the GI50 (MDA-MB-468 breast) was 2.79 µM and the TGI (MDA-MB-468 breast) was 7.05 µM. For the same compound, the GI50 (IGROV1 ovarian) was 16.7 µM, the TGI (IGROV1 ovarian) was 33 µM and the GI50 (UACC-62 melanoma) was 12 µM. The TGI (UACC-62 melanoma) was 24.5 µM, the GI50 (NCI/ADR-RES ovarian) was 16.2 µM and the TGI (NCI/ADR-RES ovarian) was 37.4 µM. The GI50 (MCF7 breast) was 10 µM, the TGI (MCF7 breast) was 26.9 µM and the GI50 (HCT-15 colon) was 4.28 µM. For the same compound, the TGI (HCT-15 colon) was 14.7 µM, the GI50 (T-47D breast) was 15.5 µM and the TGI (T-47D breast) was 30.5 µM. The GI50 (NCI-H23 lung) was 11.6 µM, the TGI (NCI-H23 lung) was 24.5 µM and the GI50 (KM12 colon) was 11.4 µM. The TGI (KM12 colon) was 26.6 µM, the GI50 (PC-3 prostate) was 20.5 µM and the TGI (PC-3 prostate) was 42.5 µM. It also gave a GI50 (EKVX NSCLC) of 17.9 µM, a TGI (EKVX NSCLC) of 35.7 µM and a GI50 (SR leukemia) of 1.91 µM. It also gave a TGI (SR leukemia) of 4.24 µM, a GI50 (HL-60(TB) leukemia) of 13.2 µM and a TGI (HL-60(TB) leukemia) of 26 µM. It also gave a GI50 (NCI-H322M lung) of 21.3 µM, a TGI (NCI-H322M lung) of 64.6 µM and a GI50 (UACC-257 melanoma) of 18.3 µM. For the same compound, the TGI (UACC-257 melanoma) was 32.3 µM, the GI50 (OVCAR-4 ovarian) was 14.9 µM and the TGI (OVCAR-4 ovarian) was 29.6 µM. For the same compound, the GI50 (A498 renal) was 23.1 µM, the TGI (A498 renal) was greater than 100 µM and the GI50 (SF-268 CNS) was 18.4 µM. The TGI (SF-268 CNS) was 38.6 µM, the GI50 (SF-295 CNS) was 13.3 µM and the TGI (SF-295 CNS) was 33.8 µM. For the same compound, the GI50 (OVCAR-3 ovarian) was 14 µM, the TGI (OVCAR-3 ovarian) was 28.1 µM and the GI50 (MOLT-4 leukemia) was 3.23 µM. For the same compound, the TGI (MOLT-4 leukemia) was 10.6 µM, the GI50 (M14 melanoma) was 12.9 µM and the TGI (M14 melanoma) was 26.1 µM. It also gave a GI50 (HOP-62 NSCLC) of 13 µM, a TGI (HOP-62 NSCLC) of 27.8 µM and a GI50 (SK-MEL-28 melanoma) of 17 µM. It also gave a TGI (SK-MEL-28 melanoma) of 32 µM, a GI50 (K-562 leukemia) of 5.42 µM and a TGI (K-562 leukemia) of 17.8 µM. The GI50 (CAKI-1 renal) was 32.7 µM and the TGI (CAKI-1 renal) was greater than 100 µM.
